This is an account of results in ChEMBL document CHEMBL1126402, “The design and biological evaluation of a series of 3-hydroxy-3-methylglutaryl coenzyme a (HMG-CoA) reductase inhibitors related to dihydromevinolin” (Bioorg Med Chem Lett, 1992).

Experiment [1] addresses T1, 3-hydroxy-3-methylglutaryl-coenzyme A reductase (Rattus norvegicus, UniProt P51639).
T1 sequence (P51639 whole entry): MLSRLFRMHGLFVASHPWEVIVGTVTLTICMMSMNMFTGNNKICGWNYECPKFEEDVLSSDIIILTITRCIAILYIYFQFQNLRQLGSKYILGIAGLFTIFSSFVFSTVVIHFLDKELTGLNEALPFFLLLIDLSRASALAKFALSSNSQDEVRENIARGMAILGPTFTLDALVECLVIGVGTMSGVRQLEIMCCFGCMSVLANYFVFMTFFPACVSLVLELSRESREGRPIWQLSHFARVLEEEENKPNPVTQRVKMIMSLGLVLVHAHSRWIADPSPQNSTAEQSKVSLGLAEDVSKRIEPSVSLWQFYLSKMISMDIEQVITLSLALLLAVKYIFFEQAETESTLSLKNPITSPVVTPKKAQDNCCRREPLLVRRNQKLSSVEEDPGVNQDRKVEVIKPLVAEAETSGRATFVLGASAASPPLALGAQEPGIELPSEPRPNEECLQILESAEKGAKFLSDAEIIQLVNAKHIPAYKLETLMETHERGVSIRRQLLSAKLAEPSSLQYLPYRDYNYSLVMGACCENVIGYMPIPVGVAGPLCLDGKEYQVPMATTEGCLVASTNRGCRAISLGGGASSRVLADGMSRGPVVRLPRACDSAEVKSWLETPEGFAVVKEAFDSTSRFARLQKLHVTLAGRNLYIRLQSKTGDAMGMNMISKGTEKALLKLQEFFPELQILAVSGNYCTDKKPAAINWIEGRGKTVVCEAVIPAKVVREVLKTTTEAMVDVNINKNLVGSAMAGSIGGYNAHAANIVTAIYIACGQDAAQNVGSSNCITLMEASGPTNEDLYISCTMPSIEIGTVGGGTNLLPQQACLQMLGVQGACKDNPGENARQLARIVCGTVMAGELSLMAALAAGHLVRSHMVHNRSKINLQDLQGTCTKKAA
The experiment can be described thus: Inhibition of microsomal rat liver HMG-CoA reductase.

Experiment [2] is described as follows: Selectivity in vivo against rat assay; A - greater inhibition in liver than in spleen, testes, kidney. In kind it is functional, organism-based.
Experiment [3] in a line: Selectivity in vivo against rat assay; NS - no significant difference between organs. In kind it is functional, organism-based.

The structures appear in SMILES notation. Activity calls are given as the source filed them. No cut-off for these calls is given here.

Take `CCC(C)C(=O)O[C@H]1C[C@@H](C)C[C@@H]2C=CC[C@H](CC[C@@H]3C[C@@H](O)CC(=O)O3)[C@@H]12` (stereo partly specified): it took 1500 nM to reach half-maximal inhibition in experiment [1] (IC50).
Regarding `CC[C@H](C)C(=O)O[C@H]1C[C@@H](C)C=C2C=C[C@H](C)[C@H](CC[C@@H]3C[C@@H](O)CC(=O)O3)[C@H]21` [LOVASTATIN], in experiment [1], the IC50 – broadly, the point on the concentration scale where inhibition reaches its midpoint – came to 11 nM. The Selectivity result in experiment [2] is “A”.
Turning to `C/C=C\[C@@H]1C[C@H](OC(C)=O)[C@@H]2[C@@H](CC[C@@H]3C[C@@H](O)CC(=O)O3)[C@@H](C)C=C[C@H]2C1`, the IC50 in experiment [1] is 1500 nM.
The same measure, in the same setting: under `CCC(C)C(=O)O[C@H]1C[C@@H](C)C[C@@H]2C=C[C@H](C)[C@H](CCC(=O)C[C@@H](O)CC(=O)OC)[C@@H]12` (stereo partly specified) stands 80 nM; under `CC/C=C/[C@@H]1C[C@H](OC(=O)C(C)(C)CC)[C@@H]2[C@@H](CC[C@@H]3C[C@@H](O)CC(=O)O3)[C@@H](C)C=C[C@H]2C1`, 15 nM.
On to `CCC/C(C)=C/[C@@H]1C[C@H](OC(=O)[C@@H](C)CC)[C@@H]2[C@@H](CC[C@@H]3C[C@@H](O)CC(=O)O3)[C@@H](C)C=C[C@H]2C1`, for which the Selectivity entry in experiment [3] is “inactive”. In experiment [1], the IC50 is 20 nM.
For the compound `CCC/C(C)=C/[C@@H]1C[C@H](OC(=O)C(C)(C)CC)[C@@H]2[C@@H](CC[C@@H]3C[C@@H](O)CC(=O)O3)[C@@H](C)C=C[C@H]2C1`, in experiment [3], the Selectivity result is “inactive”. For the same compound, the IC50 in experiment [1] was 8 nM.
With `C/C=C/[C@@H]1C[C@H](OC(=O)C(C)(C)CC)[C@@H]2[C@@H](/C=C/[C@@H]3C[C@@H](O)CC(=O)O3)[C@@H](C)C=C[C@H]2C1`, in experiment [1], the IC50 was 100 nM.
